In patent US10189816B2, “Substituted pyridines as inhibitors of human immunodeficiency virus replication” (priority 2015, dated 2019) one finds EC50 data, which are given here for 20 compounds.

Like-named read-outs stand apart in the source and are kept apart here.

The test system of this test is NL-RLuc virus. The test can be described thus: Inhibition of HIV replication (NL-RLuc reporter virus in MT-2 cells, luciferase readout). The format is cell-based. The settings on record: Human immunodeficiency virus 1, MT2, 120 h. From the text: Inhibition of HIV replication: A recombinant NL-RLuc proviral clone was constructed in which a section of the nef gene from NL4-3 was replaced with the Renilla Luciferase gene. This virus is fully infectious and can undergo multiple cycles of replication in cell culture. In addition, the luciferous reporter provides a simple and easy method for quantitating the extent of virus growth and consequently, the antiviral activity of test compounds. The plasmid pNLRLuc contains the proviral NL-Rluc DNA cloned into pUC18 at the PvuII site. The NL-RLuc virus was prepared by transfection of 293T cells with the plasmid pNLRLuc. Transfections were performed using the LipofectAMINE PLUS kit from Invitrogen (Carlsbad, Calif.) according to the manufacturer and the virus generated was titered in MT-2 cells. For susceptibility analyses, the titrated virus was used to infect MT-2 cells in the presence of compound, and after 5 days of incubation, cells were processed and quantitated for virus growth by the amount of expressed luciferase. Assay media was RPMI 1640 supplemented with 10% heat inactivated fetal bovine serum (FBS), 100 units/ml penicillin G/100 units/ml streptomycin, 10 mM HEPES buffer pH 7.55 and 2 mM L-glutamine. The results from at least 2 experiments were used to calculate the EC50 values. Luciferase was quantitated using the Dual Luciferase kit from Promega (Madison, Wis.). Susceptibility of viruses to compounds was determined by incubation in the presence of serial dilutions of the compound. The 50% effective concentration (EC50) was calculated by using the exponential form of the median effect equation where (Fa)=1/[1+(ED50/drug conc.)^m] (Johnson V A, Byington R T. Infectivity Assay. In Techniques in HIV Research. ed. Aldovini A, Walker B D. 71-76. New York: Stockton Press.1990). Activity equal to A refers to a compound having an EC50≤100 nM, while B and C denote compounds having an EC50 between 100 nM and 1 uM (B) or >1 uM (C).

As to `Cc1nc(C)c([C@H](OC(C)(C)C)C(=O)O)c(N2CCC(C)(C)CC2)c1-c1ccc2c(c1)CCN(Cc1ccc(F)cc1)C2` [Compound 1, (S)-2-(tert-butoxy)-2-(4-(4,4-dimethylpiperidin-1-yl)-5-(2-(4-fluorobenzyl)-1,2,3,4-tetrahydroisoquinolin-6-yl)-2,6-dimethylpyridin-3-yl)acetic acid], the EC50 (read-out: Activity) is less than 0.1 µM and the EC50 (read-out: EC50 μM) amounted to 0.006 µM. As for `Cc1nc(C)c([C@H](OC(C)(C)C)C(=O)O)c(N2CCC(C)(C)CC2)c1-c1ccc2c(c1)CCN(Cc1cccc(C(F)(F)F)c1)C2` [Compound 2, (S)-2-(tert-butoxy)-2-(4-(4,4-dimethylpiperidin-1-yl)-2,6-dimethyl-5-(2-(3-(trifluoromethyl)benzyl)-1,2,3,4-tetrahydroisoquinolin-6-yl)pyridin-3-yl)acetic acid], the EC50 (read-out: Activity) was less than 0.1 µM. Regarding `Cc1cccc(CN2CCc3cc(-c4c(C)nc(C)c([C@H](OC(C)(C)C)C(=O)O)c4N4CCC(C)(C)CC4)ccc3C2)c1` [Compound 3, (S)-2-(tert-butoxy)-2-(4-(4,4-dimethylpiperidin-1-yl)-2,6-dimethyl-5-(2-(3-methylbenzyl)-1,2,3,4-tetrahydroisoquinolin-6-yl)pyridin-3-yl)acetic acid], the EC50 (read-out: Activity) is less than 0.1 µM. Still for that read-out and setting: for `Cc1ccccc1CN1CCc2cc(-c3c(C)nc(C)c([C@H](OC(C)(C)C)C(=O)O)c3N3CCC(C)(C)CC3)ccc2C1` [Compound 4, (S)-2-(tert-butoxy)-2-(4-(4,4-dimethylpiperidin-1-yl)-2,6-dimethyl-5-(2-(2-methylbenzyl)-1,2,3,4-tetrahydroisoquinolin-6-yl)pyridin-3-yl)acetic acid] the value was less than 0.1 µM; for `Cc1ccc(CN2CCc3cc(-c4c(C)nc(C)c([C@H](OC(C)(C)C)C(=O)O)c4N4CCC(C)(C)CC4)ccc3C2)cc1` [Compound 5, (S)-2-(tert-butoxy)-2-(4-(4,4-dimethylpiperidin-1-yl)-2,6-dimethyl-5-(2-(4-methylbenzyl)-1,2,3,4-tetrahydroisoquinolin-6-yl)pyridin-3-yl)acetic acid], less than 0.1 µM; for `COc1cccc(CN2CCc3cc(-c4c(C)nc(C)c([C@H](OC(C)(C)C)C(=O)O)c4N4CCC(C)(C)CC4)ccc3C2)c1` [Compound 6, (S)-2-(tert-butoxy)-2-(4-(4,4-dimethylpiperidin-1-yl)-5-(2-(3-methoxybenzyl)-1,2,3,4-tetrahydroisoquinolin-6-yl)-2,6-dimethylpyridin-3-yl)acetic acid], less than 0.1 µM. With `Cc1nc(C)c([C@H](OC(C)(C)C)C(=O)O)c(N2CCC(C)(C)CC2)c1-c1ccc2c(c1)CCN(Cc1cccc(F)c1)C2` [Compound 7, (S)-2-(tert-butoxy)-2-(4-(4,4-dimethylpiperidin-1-yl)-5-(2-(3-fluorobenzyl)-1,2,3,4-tetrahydroisoquinolin-6-yl)-2,6-dimethylpyridin-3-yl)acetic acid], the EC50 is, setting by setting: (read-out: Activity) less than 0.1 µM; (read-out: EC50 μM) 0.004 µM. On to `Cc1nc(C)c([C@H](OC(C)(C)C)C(=O)O)c(N2CCC(C)(C)CC2)c1-c1ccc2c(c1)CCN(Cc1ccc(C(F)(F)F)cc1)C2` [Compound 8, (S)-2-(tert-butoxy)-2-(4-(4,4-dimethylpiperidin-1-yl)-2,6-dimethyl-5-(2-(4-(trifluoromethyl)benzyl)-1,2,3,4-tetrahydroisoquinolin-6-yl)pyridin-3-yl)acetic acid], for which the EC50 (read-out: Activity) is less than 0.1 µM.

`Cc1nc(C)c([C@H](OC(C)(C)C)C(=O)O)c(N2CCC(C)(C)CC2)c1-c1ccc2c(c1)CCN(Cc1ccccc1F)C2` [Compound 9, (S)-2-(tert-butoxy)-2-(4-(4,4-dimethylpiperidin-1-yl)-5-(2-(2-fluorobenzyl)-1,2,3,4-tetrahydroisoquinolin-6-yl)-2,6-dimethylpyridin-3-yl)acetic acid]: the EC50 (read-out: Activity) is less than 0.1 µM. As for `Cc1nc(C)c([C@H](OC(C)(C)C)C(=O)O)c(N2CCC(C)(C)CC2)c1-c1ccc2c(c1)CCN(Cc1cccc(C(=O)O)c1)C2` [Compound 10, (S)-3-((6-(5-(tert-butoxy(carboxy)methyl)-4-(4,4-dimethylpiperidin-1-yl)-2,6-dimethylpyridin-3-yl)-3,4-dihydroisoquinolin-2(1H)-yl)methyl)benzoic acid], the EC50 is, setting by setting: (read-out: Activity) more than 1 µM; (read-out: EC50 μM) 1.48 µM. Turning to `Cc1nc(C)c([C@H](OC(C)(C)C)C(=O)O)c(N2CCC(C)(C)CC2)c1-c1ccc2c(c1)CCN(Cc1cccc(-c3ccccc3)c1)C2` [Compound 11, (S)-2-(5-(2-([1,1′-biphenyl]-3-ylmethyl)-1,2,3,4-tetrahydroisoquinolin-6-yl)-4-(4,4-dimethylpiperidin-1-yl)-2,6-dimethylpyridin-3-yl)-2-(tert-butoxy)acetic acid], for the setting “read-out: Activity”, the EC50 was less than 0.1 µM. For the compound `Cc1nc(C)c([C@H](OC(C)(C)C)C(=O)O)c(N2CCC(C)(C)CC2)c1-c1ccc2c(c1)CCN(Cc1ccccc1C(F)(F)F)C2` [Compound 12, (S)-2-(tert-butoxy)-2-(4-(4,4-dimethylpiperidin-1-yl)-2,6-dimethyl-5-(2-(2-(trifluoromethyl)benzyl)-1,2,3,4-tetrahydroisoquinolin-6-yl)pyridin-3-yl)acetic acid], the EC50 (read-out: Activity) was less than 0.1 µM.

As to `Cc1nc(C)c([C@H](OC(C)(C)C)C(=O)O)c(N2CCC(C)(C)CC2)c1-c1ccc2c(c1)CCN(C(C)c1ccccc1)C2` (stereo partly drawn) [Compound 13, (2S)-2-(tert-butoxy)-2-(4-(4,4-dimethylpiperidin-1-yl)-2,6-dimethyl-5-(2-(1-phenylethyl)-1,2,3,4-tetrahydroisoquinolin-6-yl)pyridin-3-yl)acetic acid], the EC50 (read-out: Activity) is less than 0.1 µM. Turning to `Cc1nc(C)c([C@H](OC(C)(C)C)C(=O)O)c(N2CCC(C)(C)CC2)c1-c1ccc2c(c1)CCN(Cc1ccc(-c3ccccc3)cc1)C2` [Compound 14, (S)-2-(5-(2-([1,1′-biphenyl]-4-ylmethyl)-1,2,3,4-tetrahydroisoquinolin-6-yl)-4-(4,4-dimethylpiperidin-1-yl)-2,6-dimethylpyridin-3-yl)-2-(tert-butoxy)acetic acid], the EC50 was less than 0.1 µM (read-out: Activity) and 0.034 µM (read-out: EC50 μM).

As for `Cc1nc(C)c([C@H](OC(C)(C)C)C(=O)O)c(N2CCC(C)(C)CC2)c1-c1ccc2c(c1)CCN(Cc1cccc(C(F)(F)F)c1C)C2` [Compound 15, (S)-2-(tert-butoxy)-2-(4-(4,4-dimethylpiperidin-1-yl)-2,6-dimethyl-5-(2-(2-methyl-3-(trifluoromethyl)benzyl)-1,2,3,4-tetrahydroisoquinolin-6-yl)pyridin-3-yl)acetic acid], the EC50 (read-out: Activity) was less than 0.1 µM. Regarding `Cc1ccc(CN2CCc3cc(-c4c(C)nc(C)c([C@H](OC(C)(C)C)C(=O)O)c4N4CCC(C)(C)CC4)ccc3C2)cc1C(F)(F)F` [Compound 16, (S)-2-(tert-butoxy)-2-(4-(4,4-dimethylpiperidin-1-yl)-2,6-dimethyl-5-(2-(4-methyl-3-(trifluoromethyl)benzyl)-1,2,3,4-tetrahydroisoquinolin-6-yl)pyridin-3-yl)acetic acid], the EC50 (read-out: Activity) was less than 0.1 µM. As for `Cc1ccc(CN2CCc3cc(-c4c(C)nc(C)c([C@H](OC(C)(C)C)C(=O)O)c4N4CCC(C)(C)CC4)ccc3C2)cc1F` [Compound 18, (S)-2-(tert-butoxy)-2-(4-(4,4-dimethylpiperidin-1-yl)-5-(2-(3-fluoro-4-methylbenzyl)-1,2,3,4-tetrahydroisoquinolin-6-yl)-2,6-dimethylpyridin-3-yl)acetic acid], under “read-out: Activity”, the EC50 was less than 0.1 µM. On the same count and under the same terms, for `Cc1ccc(CN2CCc3cc(-c4c(C)nc(C)c([C@H](OC(C)(C)C)C(=O)O)c4N4CCC(C)(C)CC4)ccc3C2)c(C)c1` [Compound 19, (S)-2-(tert-butoxy)-2-(5-(2-(2,4-dimethylbenzyl)-1,2,3,4-tetrahydroisoquinolin-6-yl)-4-(4,4-dimethylpiperidin-1-yl)-2,6-dimethylpyridin-3-yl)acetic acid] the value was less than 0.1 µM. On the same count and under the same terms, for `Cc1nc(C)c([C@H](OC(C)(C)C)C(=O)O)c(N2CCC(C)(C)CC2)c1-c1ccc2c(c1)CCN(Cc1ccc(F)cc1F)C2` [Compound 20, (S)-2-(tert-butoxy)-2-(5-(2-(2,4-difluorobenzyl)-1,2,3,4-tetrahydroisoquinolin-6-yl)-4-(4,4-dimethylpiperidin-1-yl)-2,6-dimethylpyridin-3-yl)acetic acid] the value was less than 0.1 µM; for `Cc1nc(C)c([C@H](OC(C)(C)C)C(=O)O)c(N2CCC(C)(C)CC2)c1-c1ccc2c(c1)CCN(Cc1cccc(F)c1F)C2` [Compound 21, (S)-2-(tert-butoxy)-2-(5-(2-(2,3-difluorobenzyl)-1,2,3,4-tetrahydroisoquinolin-6-yl)-4-(4,4-dimethylpiperidin-1-yl)-2,6-dimethylpyridin-3-yl)acetic acid], less than 0.1 µM.
